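Interpolation was linear, between the two tested concentrations surrounding the appropriate level; five concentrations were tested over 48 hours in 96-well plates. TGI denotes the concentration required for complete inhibition of growth.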
Tests used:
Experiment in all cases: inhibition of tumour cell growth, NCI panel, 48 h
EKVX NSCLC = test system: EKVX NSCLC
HCC-2998 colon = test system: HCC-2998 colon
HCT-15 colon = test system: HCT-15 colon
HOP-92 NSCLC = test system: HOP-92 NSCLC
HS 578T breast = test system: HS 578T breast
MALME-3M melanoma = test system: MALME-3M melanoma
MDA-MB-435 = test system: MDA-MB-435
NCI-H460 lung = test system: NCI-H460 lung
SF-268 CNS = test system: SF-268 CNS
SNB-19 CNS = test system: SNB-19 CNS
UO-31 renal = test system: UO-31 renal

SMILES	TGI (EKVX NSCLC)	TGI (HCC-2998 colon)	TGI (HCT-15 colon)	TGI (HOP-92 NSCLC)	TGI (HS 578T breast)	TGI (MALME-3M melanoma)	TGI (MDA-MB-435)	TGI (NCI-H460 lung)	TGI (SF-268 CNS)	TGI (SNB-19 CNS)	TGI (UO-31 renal)
CN(C)Cc1cc(N=Nc2ccc(Cl)c(Cl)c2)ccc1O	25.6 µM	24.4 µM	19.1 µM	22.3 µM	21.9 µM	29.6 µM	23.9 µM	19.8 µM	18.7 µM	27.6 µM	11.9 µM
CCCCCCCCOCC1S(=O)(=O)OCCOS1(=O)=O	> 100 µM	> 100 µM	> 100 µM	> 100 µM	> 100 µM	> 100 µM	> 100 µM	> 100 µM	> 100 µM	> 100 µM	> 100 µM
COC1CCC(OC2CC(C3(C)CCC4(CC(O)C(C)C(C(C)/C=C(\C)C(=O)C(C)CC(C)C(=O)O)O4)O3)OC3(OC(C4OC(O)(CO)C(C)CC4C)CC3C)C2C)OC1C (configuration not stated)	9.64 µM	1.61 µM	1.95 µM	2.77 µM	1.15 µM	0.103 µM	0.564 µM	1.6 µM	2.84 µM	0.355 µM	5.91 µM
CC(=O)Nc1ccc(Nc2nc(=O)[nH]c(=O)[nH]2)cc1	> 100 µM	> 100 µM	> 100 µM	> 100 µM	> 100 µM	> 100 µM	> 100 µM	> 100 µM	> 100 µM	> 100 µM	> 100 µM
COc1ccc2nc3c([N+](=O)[O-])ccc4c3c(c2c1)NCCN4C	6.61 µM	4.63 µM	2.96 µM	6.44 µM	5.21 µM	2.6 µM	2.4 µM	1.48 µM	7.63 µM	8.77 µM	2.82 µM
COC(=O)CC1C2CC3C(C2=O)C13 (configuration not stated)	> 100 µM	> 100 µM	> 100 µM	> 100 µM	> 100 µM	> 100 µM	> 100 µM	> 100 µM	> 100 µM	> 100 µM	> 100 µM
COc1cc2[nH]c(-c3ccccc3)cc(=O)c2cc1OC	> 100 µM	> 87.4 µM	97.9 µM	> 100 µM	> 100 µM	> 100 µM	12.2 µM	> 66.6 µM	> 100 µM	> 100 µM	> 100 µM

Source: PubChem BioAssay (NCI)
